Source: patent US20090209605A1, “NEMATICIDAL COMPOSITIONS” (Devgen N.V., priority 2004, published 2009)

Experiments:
Assay type in all cases: in vivo
Meloidogyne incognita = experiment: Root infestation on agar plate: root knot count on potato microplant roots; conditions: 60 μM in agar, galls counted 5 weeks after inoculation, four replicates
Method: 9 cm petri dishes were filled with a 15 ml agar. One stem cutting of a potato microplant (Solanum tuberosum cv. Desirée) was placed on top of the agar layer. After 2 to 3 weeks of incubation at 20° C., the root system was sufficiently developed to be inoculated.
The test compounds (see Table 1) were added 2 days before inoculation by way of spreading a 2 ml DMSO-solution with the compound over the agar and allowing the compound to diffuse in the agar during two days at constant temperature of 20° C. During incubation, the plates are protected from light in a dark incubator. The resulting concentration of each compound in each agar plate was 60 μM.
After incubation, approximately 400 axenic juveniles of Meloidogyne incognita species were added to the plate.
The plates were incubated in the dark at a constant temperature of 20° C. and 5 weeks after inoculation the number of galls formed on the roots were determined by counting. Also any toxic effect of the test compounds on the roots was recorded. 8 weeks after inoculation the plates were stored at low temperature.
Each compound was tested in four replicates. Positive controls were treated with different concentrations of Aldicarb, a known nematicide. Negative controls included 5 replicates of double negative controls (no compound, no nematode), 5 replicates of single negative controls (no compound, with nematode) and 5 replicates of DMSO controls (DMSO solution, with nematode).

[1] = tested on: Meloidogyne incognita nematodes; experiment: Pot Assay 1: Meloidogyne infection of potato, egg masses/galls on roots; conditions: potato in pot, week 8 after inoculation
Method: 500 ml clay pots were filled with 400 ml of silver sand. One tuber of potato ( Solanum tuberosum cv. Bintje) was planted in the sand. After 2 to 3 weeks incubation, the potato plant was sufficiently developed to be inoculated.
Plants were grown under the usual standard greenhouse conditions at 14° C.-18° C., with 16 hours light and 8 hours dark and 80-90% relative humidity. The pots were watered using individual drippers and fertilizers were added under the form of macro- and micro nutrients according to plant growth requirements. When needed, the plants were sprayed with fungicides and insecticides.
The compounds as described herein were added one day before inoculation. The compounds were dissolved in a 20 ml DMSO-solution and spread over the sand surface. The final concentration is calculated under the assumption that the compound is diffused entirely in the pot. This process occurred during two days at the normal greenhouse conditions described above.
After compound incubation, approximately 1500 juveniles of Meloidogyne incognita nematodes were added to the pots.
The pots were incubated at the described greenhouse conditions until nematode development was completed. At week 8 after inoculation the number of galls formed on the roots was counted after washing off the sandy substrate. Also the effect of the compound on the plant development was recorded.
Every compound was tested in three replicates. Positive control plants were treated with different concentrations of aldicarb, a known nematicide. Negative controls involved 12 replicates of double negative controls (no compound, no nematode), 12 replicates of single negative controls (no compound, no DMSO, with nematode), 24 replicates of DMSO controls (DMSO solution, with nematode).
As assessment of the root development was taken into account.

[2] = tested on: root-knot nematode (Meloidogyne spp); experiment: Nematicide field trial on cucumber: root galling and yield; conditions: for Average root galling: 0-5 Lamberti scale
Method: Open ground grown cucumber (Cucumis sativus cv Carine) were grown on sandy soil with a natural root-knot nematode (Meloidogyne spp) population. Soil samples, collected prior to planting, contained on average 8 J2 juveniles per 100 g soil. A program of 4 applications with intervals of about 14 days was started six days after transplantation.
(§1) An experimental pattern at Complete Randomized Blocks with four replicas was adopted. Besides the experimental products, each test also included an untreated control and a treatment with the standard commercial product VYDATE 10L (10%) applied in accordance to label instructions.
[…] The level of nematode attack of the root system at the time of harvesting was assessed by means of the lamberti scoring.

[3] = tested on: stubby root nematodes (Paratrichodorus), stunt nematodes (Tylenchorhynchus spp.), root lesion nematodes (Pratylenchus spp.) and root knot nematodes …; experiment: Nematicide field trial on carrots: % deformed carrots
Method: Garden carrots were grown in the open field. The soil contained high levels of stubby root nematodes (Paratrichodorus), stunt nematodes (Tylenchorhynchus spp.), root lesion nematodes (Pratylenchus spp.) and root knot nematodes (Meloidogyne spp.).
as §1
In carrots, nematodes cause deformation such as stunting, dwarfing, twisting, splitting and bearding. For these experiments, the total percentage of deformed carrots were considered, as these are not marketed for human consumption and are of no commercial interest.
Three different tests have been performed (Tables 9, 10 and 11), each containing an untreated and commercial reference control. All treatments were statistically different from untreated control.

Cc1cc(C2CC2)nc(Nc2ccccc2)n1 [XLIV]
Root knot count, average of the replicate counts (Meloidogyne incognita): 9.5 | number of egg masses (galls) on roots, Replicate 3 ([1]; 0.5 μM): 5 | number of egg masses (galls) on roots, Replicate 1 ([1]; 2 μM): 20 | number of egg masses (galls) on roots, Replicate 3 ([1]; 2 μM): 15 | number of egg masses (galls) on roots, Replicate 1 ([1]; 10 μM): 20 | number of egg masses (galls) on roots, Replicate 1 ([1]; 50 μM): 15 | number of egg masses (galls) on roots, Replicate 2 ([1]; 50 μM): 25 | number of egg masses (galls) on roots, Replicate 3 ([1]; 50 μM): 5 | Average yield of marketable fruits ([2]; Product Rate 500 g ai/ha): 7.3 kg/plant/pot | Average root galling ([2]; Product Rate 500 g ai/ha): 2.5 | Average yield of marketable fruits ([2]; Product Rate 1500 g ai/ha): 8.3 kg/plant/pot | Average root galling ([2]; Product Rate 1500 g ai/ha): 2.5 | % total deformed ([3]; test of Table 9, Product Rate 500 g ai/ha): 37.41% | % total deformed ([3]; test of Table 9, Product Rate 1500 g ai/ha): 44.85% | % total deformed ([3]; test of Table 9, Product Rate 3000 g ai/ha): 37.10%
